# Records with an inconclusive call do not appear. Calls of active or inactive are those of the source. The rule behind the calls is not given here.
# Experiment: NIH/3T3 fibroblast cytotoxicity, dose response, cytotoxicity control, cell-based, plate reader, dry powder, set 2 (AID 652280)
# Conditions: NIH/3T3 mouse fibroblast toxicity, plate reader; at 16 µM (top of the series)
row,Structure (SMILES),"activity change, negative = toxicity"
1,O=C(Cc1ccccn1)N1CCCCN2[C@@H](CO)[C@H](c3ccc(Br)cc3)[C@@H]2C1,9.05% (inactive)
2,CC(C)N1C[C@H](CN)Oc2c(NC(=O)c3ccncc3)cccc2C1=O,4.38% (inactive)
3,CC(=O)N1CCCCN2[C@@H](CO)[C@H](c3ccc(-c4cccc(C(=O)N(C)C)c4)cc3)[C@@H]2C1,24.4% (inactive)
4,CC(C)N1C[C@@H](CN(C)Cc2ccc(Cl)cc2)Oc2c(NC(=O)c3ccncn3)cccc2C1=O,-18.8% (inactive)
5,CC(C)(O)C#Cc1cccc(-c2nc(C(=O)NCc3ccc4c(c3)OCO4)cc3c2[C@H](CCO)N(S(=O)C(C)(C)C)C3)c1 (stereo partly specified),-19.2% (inactive)
6,CN(C)C(=O)c1cccc(-c2ccc([C@H]3[C@H](CO)N4CCCCN(C(=O)C5CCCC5)C[C@@H]34)cc2)c1,32.1% (inactive)
7,CCOC(=O)c1cc2c(c(-c3cccc(C#CCN(C)C)c3)n1)[C@H](CCO)N(S(=O)C(C)(C)C)C2 (stereo partly specified),-9.39% (inactive)
8,C[C@H]1CN([C@@H](C)CO)C(=O)c2cccc(NC(=O)c3ccncc3)c2O[C@@H]1CN(C)Cc1c(Cl)cccc1Cl,16% (inactive)
9,C[C@@H](CO)N1CC[C@H](CNC(=O)OC(C)(C)C)Oc2c(NC(=O)c3ccncc3)cccc2C1=O,2.74% (inactive)
10,CN(C)C(=O)c1cccc(-c2ccc([C@@H]3[C@H]4CN(C(=O)C5CCC5)CCCCN4[C@H]3CO)cc2)c1,5.4% (inactive)
11,C[C@H]1CN([C@@H](C)CO)C(=O)c2cccc(NC(=O)c3ccncc3)c2O[C@@H]1CN(C)Cc1ccc(F)c(F)c1,-6.64% (inactive)
12,C[C@H]1CN([C@@H](C)CO)C(=O)c2cccc(NC(=O)c3ccncc3)c2O[C@@H]1CN(C)Cc1ccc(Oc2ccccc2)cc1,12.9% (inactive)
13,CC(C)N1C[C@@H](C)[C@H](CN(C)C(=O)OC(C)(C)C)Oc2c(C#N)cccc2C1=O,-6.53% (inactive)
14,CC(c1ccc(Cl)cc1)N1CC2(C1)CN(C(C)C)C(=O)c1cccc(NC(=O)c3ccncc3)c1O2 (stereo unspecified),6.05% (inactive)
15,CC(C)N1C[C@H](C)[C@@H](CN(C)Cc2ccc(Cl)cc2)Oc2c(C(=O)Nc3ccncc3)cccc2C1=O,-7.6% (inactive)
16,CC(C)N1C[C@H](CN(C)Cc2ccc(Cl)cc2)Oc2c(NC(=O)c3ccnnc3)cccc2C1=O,3.72% (inactive)
17,CC(C)N1C[C@H](CN2Cc3ccccc3C2)Oc2c(NC(=O)c3ccncc3)cccc2C1=O,1.03% (inactive)
18,C[C@@H]1CN([C@@H](C)CO)C(=O)c2cccc(NC(=O)c3ccncc3)c2O[C@H]1CN(C)Cc1cccc(Cl)c1,-5.45% (inactive)
19,C[C@H]1CN([C@@H](C)CO)C(=O)c2cccc(NC(=O)c3ccncc3)c2O[C@@H]1CN(C)Cc1ccc(Cl)cc1,-41.2% (inactive)
20,COc1cccc(-c2ccc([C@H]3[C@H](CO)N4CCCCN(C(=O)Cc5ccncc5)C[C@@H]34)cc2)c1,-1.62% (inactive)
21,CC(C)N1CC2(CN(CC3CCCCC3)C2)Oc2c(NC(=O)c3ccncc3)cccc2C1=O,9.84% (inactive)
22,O=C(Cc1ccccn1)N1CCCCN2[C@@H](CO)[C@H](c3ccc(-c4ccc(F)cc4)cc3)[C@@H]2C1,-8.79% (inactive)
23,CN(C)C(=O)c1ccc(-c2ccc([C@H]3[C@H](CO)N4CCCCN(C(=O)C5CCC5)C[C@@H]34)cc2)cc1,-17% (inactive)
24,COc1ccc(S(=O)(=O)N(C)C[C@H]2OCCCC[C@H](C)Oc3ccc(N(C)C)cc3C(=O)N([C@H](C)CO)C[C@@H]2C)cc1,10% (inactive)
25,O=C(CN1CCOCC1)N1CCCCN2[C@@H](CO)[C@H](c3ccc(Br)cc3)[C@@H]2C1,2.42% (inactive)
26,CC(C)N1CC2(CN(Cc3ccc(-c4cccnc4)cc3)C2)Oc2c(NC(=O)c3ccncc3)cccc2C1=O,-22.8% (inactive)
